Results taken from patent US8765722B2 (priority 2009, dated 2014).

Tested on: human hepatoma Huh-7 cell line harboring a HCV replicon
Test: microbe, parasite or virus in culture
Format: cell-based
Settings: for EC50 / inhibition at 2 µM: Hepatitis C virus; for EC50: Huh-7; for inhibition at 2 µM: Huh-7, 72 h, read-out: % inhibition at 2 μM

| Compound | EC50 [nM] | inhibition at 2 µM [%] | % inhibition at 2 μM [%] |
| --- | --- | --- | --- |
| CC(C)(C)C#Cc1cc(N(C(=O)[C@H]2CC[C@H](C)CC2)[C@H]2CC[C@H](OP(C)(C)=O)CC2)c(C(=O)O)s1 [Compound 1, 5-(3,3-Dimethyl-but-1-ynyl)-3-[[trans-4-(dimethyl-phosphinoyloxy)-cyclohexyl]-(trans-4-methyl-cyclohexanecarbonyl)-amino]-thiophene-2-carboxylic acid] | ≤ 500 | 99.8 |  |
| CCOP(=O)(CCNC1CCC(N(c2cc(C#CC(C)(C)C)sc2C(=O)O)C(=O)[C@H]2CC[C@H](C)CC2)CC1)OCC (stereo partly shown) [Compound 24, 3-(1,4-N-(4-(2-(diethoxyphosphoryl)ethylamino)cyclohexyl)-4-methylcyclohexanecarboxamido)-5-(3,3-dimethylbut-1-ynyl)thiophene-2-carboxylic acid] | ≤ 500 |  |  |
| CCOP(C)(=O)C1(OC)CCC(N(c2cc(C#CC(C)(C)C)sc2C(=O)O)C(=O)[C@H]2CC[C@H](C)CC2)CC1 (stereo partly shown) [Compound 14] | ≤ 500 | 99.8 |  |
| CCOP(C)(=O)C1(O)CCC(N(c2cc(C#CC(C)(C)C)sc2C(=O)O)C(=O)[C@H]2CC[C@H](C)CC2)CC1 (stereo partly drawn) [Compound 13, 5-(3,3-dimethylbut-1-ynyl)-3-((1r,4r)-N-(4-ethoxy(methyl)phosphoryl)-4-hydroxycyclohexyl)-(trans-4-methylcyclohexanecarboxamido)thiophene-2-carboxylic acid] | ≤ 500 | 99.8 |  |
| 5-(3,3-Dimethyl-but-1-ynyl)-3-[[trans-4-(dimethyl-phosphinoyloxy)-cyclobutyl]-cis-4-methyl-cyclohexanecarbonyl)-amino]-thiophene-2-carboxylic acid [Compound 17] |  |  | 99.5 |
| CP(C)(=O)O[C@H]1CC[C@H](N(c2cc(-c3ccc(NC(=O)c4cscn4)cc3)sc2C(=O)O)C(=O)[C@H]2CC[C@H](C)CC2)CC1 [Compound 7, 3-[[trans-4-(Dimethyl-phosphinoyloxy)-cyclohexyl]-(trans-4-methyl-cyclohexanecarbonyl)-amino]-5-{4-[(thiazole-4-carbonyl)-amino]-phenyl}-thiophene-2-carboxylic acid] | ≤ 500 | 99.8 |  |
| COP1(=O)CCC(NC2CCC(N(c3cc(C#CC(C)(C)C)sc3C(=O)O)C(=O)[C@H]3CC[C@H](C)CC3)CC2)CC1 (stereo partly drawn) [Compound 9, 5-(3,3-Dimethyl-but-1-ynyl)-3-[[4-(1-methoxy-1-oxo-1λ^5-phosphinan-4-ylamino)-cyclohexyl]-(trans-4-methyl-cyclohexanecarbonyl)-amino]-thiophene-2-carboxylic acid] | ≤ 500 | 99.9 |  |
| COP1(=O)CCC(N(c2cc(C#CC(C)(C)C)sc2C(=O)O)C(=O)[C@H]2CC[C@H](C)CC2)CC1 (stereo partly drawn) [Compound 11, 5-(3,3-Dimethyl-but-1-ynyl)-3-[(1-methoxy-1-oxo-1 λ^5phosphinan-4-yl)-(trans-4-methyl-cyclohexanecarbonyl)-amino]-thiophene-2-carboxylic acid] | ≤ 500 | 99.8 |  |
| CP(C)(=O)O[C@H]1CC[C@H](N(c2cc(-c3ccc(-c4cc5ncccn5n4)cc3)sc2C(=O)O)C(=O)[C@H]2CC[C@H](C)CC2)CC1 [Compound 8] | ≤ 500 | 99.8 |  |
| CC(C)(C)C#Cc1cc(N(C(=O)[C@H]2CC[C@H](C)CC2)C2CCP(=O)(O)CC2)c(C(=O)O)s1 (stereo partly drawn) [Compound 12, 5-(3,3-Dimethyl-but-1-ynyl)-3[(1-hydroxy-1-oxo-1 λ^5phosphinan-4-yl)-(trans-4-methyl-cyclohexanecarbonyl)-amino]-thiophene-2-carboxylic acid] |  | 98.2 |  |
| CCP(=O)(CC)O[C@H]1CC[C@H](N(c2cc(C#CC(C)(C)C)sc2C(=O)O)C(=O)[C@H]2CC[C@H](C)CC2)CC1 [Compound 2, 3-[[trans-4-(Diethyl-phosphinoyloxy)-cyclohexyl]-(trans-4-methyl-cyclohexanecarbonyl)-amino]-5-(3,3-dimethyl-but-1-ynyl)-thiophene-2-carboxylic acid] | ≤ 500 | 99.8 |  |
| CP(=O)(O)Cc1ccc(-c2cc(N(C(=O)[C@H]3CC[C@H](C)CC3)[C@H]3CC[C@H](O)CC3)c(C(=O)O)s2)cc1 [Compound 22] |  | 12.3 |  |
| CC(C)(C)C#Cc1cc(N(C(=O)[C@H]2CC[C@H](C)CC2)[C@H]2CC[C@H](OP(=O)(c3ccccc3)c3ccccc3)CC2)c(C(=O)O)s1 [Compound 4, 5-(3,3-Dimethyl-but-1-ynyl)-3-[[trans-4-(diphenyl-phosphinoyloxy)-cyclohexyl]-(trans-4-methyl-cyclohexanecarbonyl)-amino]-thiophene-2-carboxylic acid] |  | 94.7 |  |
| CC(C)(C)C#Cc1cc(N(CCOP(C)(C)=O)C(=O)[C@H]2CC[C@H](C)CC2)c(C(=O)O)s1 [Compound 15, 5-(3,3-Dimethyl-but-1-ynyl)-3-[[2-(dimethyl-phosphinoyloxy)-ethyl]-(trans-4-methyl-cyclohexanecarbonyl)-amino]-thiophene-2-carboxylic acid] | ≤ 500 | 98.9 |  |
| CCOP(C)(=O)CCN(c1cc(C#CC(C)(C)C)sc1C(=O)O)C(=O)[C@H]1CC[C@H](C)CC1 (stereo partly shown) [Compound 18, 5-(3,3-Dimethyl-but-1-ynyl)-3-[[2-(ethoxy-methyl-phosphinoyl)-ethyl]-(4-methyl-cyclohexanecarbonyl)-amino]thiophene-2-carboxy-lic acid] | ≤ 500 | 98.8 |  |
| CC(C)(C)C#Cc1cc(N(C(=O)[C@H]2CC[C@H](C)CC2)[C@H]2CC[C@H](OP(C)(=O)c3ccccc3)CC2)c(C(=O)O)s1 (stereo partly drawn) [Compound 3, 5-(3,3-Dimethyl-but-1-ynyl)-3-{(trans-4-methyl-cyclohexanecarbonyl)-[trans-4-(methyl-phenyl-phosphinoyloxy)-cyclohexyl]-amino}-thiophene-2-carboxylic acid] | ≤ 500 | 99.6 |  |
| CC(C)(C#Cc1cc(N(C(=O)[C@H]2CC[C@H](C)CC2)[C@H]2CC[C@H](O)CC2)c(C(=O)O)s1)CCOP(C)(C)=O [Compound 23] | ≤ 500 |  |  |
| CC(C)(C)C#Cc1cc(N(C(=O)[C@H]2CC[C@H](C)CC2)[C@H]2CC[C@@H](OP(C)(C)=O)CC2)c(C(=O)O)s1 [Compound 5, 5-(3,3-Dimethyl-but-1-ynyl)-3-[[cis-4-(dimethyl-phosphinoyloxy)-cyclohexyl]-(trans-4-methyl-cyclohexanecarbonyl)-amino]-thiophene-2-carboxylic acid] | ≤ 500 | 100 |  |
| CC(C)(C)C#Cc1cc(N(CCP(C)(=O)O)C(=O)[C@H]2CC[C@H](C)CC2)c(C(=O)O)s1 [Compound 19, 5-(3,3-dimethyl-but-1-ynyl)-3-[[2-(hydroxy-methyl-phosphinoyl)-ethyl]-(4-methyl-cyclohexanecarbonyl)-amino]-thiophene-2-carboxylic acid] | ≤ 500 | 94.2 |  |
| CCOP(C)(=O)Cc1ccc(-c2cc(N(C(=O)[C@H]3CC[C@H](C)CC3)C3CCC4(CC3)OCCO4)c(C(=O)O)s2)cc1 (stereo partly shown) [Compound 20, 3-[(1,4-Dioxa-spiro[4.5]dec-8-yl)-(4-methyl-cyclohexanecarbonyl)-amino]-5-[4-(ethoxy-methyl-phosphinoylmethyl)-phenyl]-thiophene-2-carboxylic acid] |  | 56.3 |  |
| CCP(=O)(CC)OCCN(c1cc(C#CC(C)(C)C)sc1C(=O)O)C(=O)[C@H]1CC[C@H](C)CC1 [Compound 16, 3-[[2-(Diethyl-phosphinoyloxy)-ethyl]-(trans-4-methyl-cyclohexanecarbonyl)-amino]-5-(3,3-dimethyl-but-1-ynyl)-thiophene-2-carboxylic acid] | ≤ 500 | 99.5 |  |
| CCOP(C)(=O)Cc1ccc(-c2cc(N(C(=O)[C@H]3CC[C@H](C)CC3)[C@H]3CC[C@H](O)CC3)c(C(=O)O)s2)cc1 (stereo partly shown) [Compound 21] |  | 79.2 |  |
| CC(C)(C)C#Cc1cc(N(C(=O)[C@H]2CC[C@H](C(F)(F)F)CC2)[C@H]2CC[C@H](OP(C)(C)=O)CC2)c(C(=O)O)s1 [Compound 6, 5-(3,3-Dimethyl-but-1-ynyl)-3-[[trans-4-(dimethyl-phosphinoyloxy)-cyclohexyl]-(trans-4-trifluoromethyl-cyclohexanecarbonyl)-amino]-thiophene-2-carboxylic acid] |  | 93.2 |  |
